Experiments:
Assay type in all cases: cell-based
CD81/CD14 (×8) = biological target: T1, CD81/CD14 (×8) (Homo sapiens, UniProt P08571); experiment: FRET co-assembly of CD81 with CD14 on monocytes; conditions: LPS 4 nM, ceramide 40 nM, LTA 1 μg/ml, HSP70 7 nM, mean ± SD of 10 experiments; for energy transfer CD81 (JS-81)/CD14 (×8): CD81 clone JS-81; for energy transfer CD81 (Js64)/CD14 (×8): CD81 clone Js64
T1 construct: endogenous in cells; host or cells: human monocytes in whole blood (donors; also sepsis and CAD patients)
T1 sequence (P08571 20-345 limits assumed): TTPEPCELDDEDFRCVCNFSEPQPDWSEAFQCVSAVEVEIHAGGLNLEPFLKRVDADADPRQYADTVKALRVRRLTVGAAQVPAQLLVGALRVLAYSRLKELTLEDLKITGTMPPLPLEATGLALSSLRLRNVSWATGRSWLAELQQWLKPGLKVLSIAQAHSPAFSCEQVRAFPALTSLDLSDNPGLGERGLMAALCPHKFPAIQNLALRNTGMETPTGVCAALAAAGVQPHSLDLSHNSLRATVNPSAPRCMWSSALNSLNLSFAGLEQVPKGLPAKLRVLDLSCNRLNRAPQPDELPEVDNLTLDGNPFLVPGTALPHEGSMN
Description: (§1) Aliquots […] of whole blood were incubated with the following stimulatory compounds at 37° C. for 15 minutes: LPS of Salmonella minnesota (0.1-10 nM, Mw 10 kDa), ceramide (primarily stearic acid and nervonic acid) and sulfogalactosyl ceramide (SG-cer, […]), both of which tested LPS free in the LAL assay (Cer, 1 nM-5.5 mM), lysophosphatidyl choline (lyso-PC, 10 mM), phorbol-12-myristate-13-acetate (PMA, 1 mM), N-formyl-L-methionyl-L-leucyl-L-phenyl alamine (fMLP, 1 mM), PE, PC, PI and PS liposomes (10 mm) which had been prepared as described above. All reagents were obtained from Sigma. In addition, the cells were stimulated with HPS70 (7 nM), dHSP70 (7 nM) and SG-cer+dHSP70 (40 nM+7 nM). After incubation, the cells were washed with cold PBS containing 0.1% of NaN3. The synthetic LPS antagonist lipid IVa (“compound-406”, 1-400 ng/ml) and lipid A derived from E. coli (1-100 ng/ml) were made available by courtesy of Dr. S. Kusumoto. The cells were pre-incubated with the LPS antagonist at 37° C. for 15 minutes and then stimulated with LPS at the same temperature (without washing).
Whole blood cells which had been stimulated or washed ex vivo […] were incubated on ice for 15 minutes with saturation concentrations of monoclonal fluorochrom-conjugated or biotinylated antibodies. The monoclonal antibodies CD11a (clone 25.3.1), CD16a (clone 3G8). CD18 (clone 7E4), CD14 (clone RMO52), CD33 (clone My9-RD1). CD81 (clone Js64) were obtained as R-phyco-erythrine (R-PE) conjugates and CD25 (clone B1.49.9) in biotinylated form from Coulter/Immunotech (Krefeld, Germany). CD11b (clone d12), CD11c (clone S-HCL-3), CD36 (clone CB38), CD47 (clone B6H12), CD81 (clone JS-81) and (Cd55 (clone IA10) in biotinylated form and Streptavidin-R-PE were purchased from Becton/Dickinson/Pharningen (Heidelberg, Germany) CD18 (clone IB4) in biontinylated form and CD40 (clone EA-5) as R-PE conjugate were obtained from Alexis (Grünberg, Germany) and CD14 (clones ×8 and Uchml) and CD3 (clone Cris-7) in biotinylated form and Streptavidin-Cy5 (Sa-Cy5) from Dianova (Hamburg, Germany), CD32 (clone C1KM5) and CD64 (clone 10.1) were obtained as R-PE conjugates from Caltag (Burlingame, U.S.A.) and CD91 (clone 8G1) in biotinylated form from Proen (Heidelberg, Germany). A monoclonal anti-TLRA antibody (clone HTA125) was kindly provided by Dr. Kensuke. Since no energy transfer between the antibodies directed against the CD14/CD11a and CD14/CD11c pairs was detectable either on resting or on stimulated cells, these antibody combinations were not characterised further. […]

CD55/CD14 (Uchm1) = biological target: T2, CD55/CD14 (Uchm1) (Homo sapiens, UniProt P08571); experiment: FRET co-assembly of CD55 with CD14 on monocytes; conditions: LPS 4 nM, ceramide 40 nM, LTA 1 μg/ml, HSP70 7 nM; mean ± SD of 10 experiments; >5% = positive transfer
T2 construct: endogenous in cells; host or cells: human monocytes in whole blood
T2 sequence (P08571 20-345 limits assumed): T1 sequence (P08571 20-345 limits assumed)
Description: as §1
(§2) Whole blood cells which had been stimulated or washed ex vivo […] were incubated on ice for 15 minutes with saturation concentrations of monoclonal fluorochrom-conjugated or biotinylated antibodies. The monoclonal antibodies CD11a (clone 25.3.1), CD16a (clone 3G8). […]

CD36/CD14 (×8) = biological target: T3, CD36/CD14 (×8) (Homo sapiens, UniProt P08571); experiment: FRET co-assembly of CD36 with CD14 on monocytes; conditions: LPS 4 nM, ceramide 40 nM, LTA 1 μg/ml, HSP70 7 nM; mean ± SD of 10 experiments; >5% = positive transfer
T3 construct: endogenous in cells; host or cells: human monocytes in whole blood
T3 sequence (P08571 20-345 limits assumed): T1 sequence (P08571 20-345 limits assumed)
Description: as §1, §2

TLR-4/CD14 (×8) = biological target: T4, TLR-4/CD14 (×8) (Homo sapiens, UniProt P08571); experiment: FRET co-assembly of TLR-4 with CD14 on monocytes; conditions: LPS 4 nM, ceramide 40 nM, LTA 1 μg/ml, HSP70 7 nM; mean ± SD of 10 experiments; >5% = positive transfer
T4 construct: endogenous in cells; host or cells: human monocytes in whole blood
T4 sequence (P08571 20-345 limits assumed): T1 sequence (P08571 20-345 limits assumed)
Description: as §1, §2

CD32/CD14 (Uchm1) = biological target: T5, CD32/CD14 (Uchm1) (Homo sapiens, UniProt P08571); experiment: FRET co-assembly of CD32 with CD14 on monocytes; conditions: LPS 4 nM, ceramide 40 nM, LTA 1 μg/ml, HSP70 7 nM; mean ± SD of 10 experiments; >5% = positive transfer
T5 construct: endogenous in cells; host or cells: human monocytes in whole blood
T5 sequence (P08571 20-345 limits assumed): T1 sequence (P08571 20-345 limits assumed)
Description: as §1, §2

CD64/CD14 (Uchm1) = biological target: T6, CD64/CD14 (Uchm1) (Homo sapiens, UniProt P08571); experiment: FRET co-assembly of CD64 with CD14 on monocytes; conditions: LPS 4 nM, ceramide 40 nM, LTA 1 μg/ml, HSP70 7 nM; mean ± SD of 10 experiments; >5% = positive transfer
T6 construct: endogenous in cells; host or cells: human monocytes in whole blood
T6 sequence (P08571 20-345 limits assumed): T1 sequence (P08571 20-345 limits assumed)
Description: as §1, §2

CD11b and CD14 = biological target: T7, CD11b and CD14 (Homo sapiens, UniProt P08571); experiment: FRET flow cytometry: co-assembly of CD11b and CD14 on monocytes; conditions: for co-assembly of CD11b and CD14 (energy transfer between monoclonal antibodies): human monocytes in whole blood, stimulation with the substance alone, 37° C. 15 minutes
T7 construct: endogenous in cells; host or cells: human monocytes in heparinised whole blood (healthy donors and patients)
T7 sequence (P08571 20-345 limits assumed): T1 sequence (P08571 20-345 limits assumed)
Description: as §1
Whole blood cells which had been stimulated or washed ex vivo […] were incubated on ice for 15 minutes with saturation concentrations of monoclonal fluorochrom-conjugated or biotinylated antibodies. The monoclonal antibodies CD11a (clone 25.3.1), CD16a (clone 3G8). CD18 (clone 7E4), CD14 (clone RMO52), CD33 (clone My9-RD1). CD81 (clone Js64) were obtained as R-phyco-erythrine (R-PE) conjugates and CD25 (clone B1.49.9) in biotinylated form from Coulter/Immunotech (Krefeld, Germany). CD11b (clone d12), CD11c (clone S-HCL-3), CD36 (clone CB38), CD47 (clone B6H12), CD81 (clone JS-81) and (Cd55 (clone IA10) in biotinylated form and Streptavidin-R-PE were purchased from Becton/Dickinson/Pharningen (Heidelberg, Germany) CD18 (clone IB4) in biontinylated form and CD40 (clone EA-5) as R-PE conjugate were obtained from Alexis (Grünberg, Germany) and CD14 (clones ×8 and Uchml) and CD3 (clone Cris-7) in biotinylated form and Streptavidin-Cy5 (Sa-Cy5) from Dianova (Hamburg, Germany), CD32 (clone C1KM5) and CD64 (clone 10.1) were obtained as R-PE conjugates from Caltag (Burlingame, U.S.A.) and CD91 (clone 8G1) in biotinylated form from Proen (Heidelberg, Germany). A monoclonal anti-TLRA antibody (clone HTA125) was kindly provided by Dr. Kensuke. Since no energy transfer between the antibodies directed against the CD14/CD11a and CD14/CD11c pairs was detectable either on resting or on stimulated cells, these antibody combinations were not characterised further.
Lysis of erythrocytes and washing were carried out as described (Rothe et al., Thromb. Vasc. Biol. 16 (1996), 1437-1447). After the last washing step, the samples were divided and part of each sample incubated with a saturating amount of SA-Cy5 on ice for 15 minutes and washed before measuring.
For energy transfer experiments, […] aliquots of whole blood were treated with cholesterol/methyl cyclodextrine (C/C) (100 mg/ml/4.6 mg/ml) or 2-hydroxypropyl-β-cyclodextrine (0.15 mg/ml) at 37° C. for 30 minutes and then stimulated further with LPS (4 nM) or ceramide (40 nM) as described above. The energy transfer between CD14 and CD11b was measured.
A “FACSCalibur” flow cytometer (Becton Dickinson) equipped with an air-cooled 15 mW argon laser (excitation wavelength 488 nm), a diode laser (excitation wavelength […]) and standard filters [channel 1 (FITC): 530/30 nm band pass filter; channel 2 (R-PE being used as donor dye); 585/47 nm band pass filter; channel 3 (PerCP): pass having a length of >670 nm; and channel 4 (Cy5being used as recipient dye): 661/16 nm bad pass filter] was used. The Cellquest software (Becton Dickinson) was used for the measurements. […] Measurement was conducted without compensation. 50,000 leukocytes were required in the “list” modus, forward scattering (FSC) being used as a trigger signal. […]

CD18(7E4)/CD14 (×8) = biological target: T8, CD18(7E4)/CD14 (×8) (Homo sapiens, UniProt P08571); experiment: FRET co-assembly of CD18 with CD14 on monocytes; conditions: LPS 4 nM, ceramide 40 nM, LTA 1 μg/ml, HSP70 7 nM; mean ± SD of 10 experiments; >5% = positive transfer
T8 construct: endogenous in cells; host or cells: human monocytes in whole blood
T8 sequence (P08571 20-345 limits assumed): T1 sequence (P08571 20-345 limits assumed)
Description: as §1, §2

CD16/CD14 (Uchm1) = biological target: T9, CD16/CD14 (Uchm1) (Homo sapiens, UniProt P08571); experiment: FRET co-assembly of CD16 with CD14 on monocytes; conditions: LPS 4 nM, ceramide 40 nM, LTA 1 μg/ml; mean ± SD of 10 experiments; >5% = positive transfer
T9 construct: endogenous in cells; host or cells: human monocytes in whole blood
T9 sequence (P08571 20-345 limits assumed): T1 sequence (P08571 20-345 limits assumed)
Description: as §1, §2

CD47/CD14 (Uchm1) = biological target: T10, CD47/CD14 (Uchm1) (Homo sapiens, UniProt P08571); experiment: FRET co-assembly of CD47 with CD14 on monocytes; conditions: LPS 4 nM, ceramide 40 nM, LTA 1 μg/ml; mean ± SD of 10 experiments; >5% = positive transfer
T10 construct: endogenous in cells; host or cells: human monocytes in whole blood
T10 sequence (P08571 20-345 limits assumed): T1 sequence (P08571 20-345 limits assumed)
Description: as §1, §2

Substance	energy transfer CD81 (JS-81)/CD14 (×8) (CD81/CD14 (×8)) [%]	energy transfer CD81 (Js64)/CD14 (×8) (CD81/CD14 (×8)) [%]	energy transfer CD55/CD14 (Uchm1) (CD55/CD14 (Uchm1)) [%]	energy transfer CD36/CD14 (×8) (CD36/CD14 (×8)) [%]	energy transfer TLR-4/CD14 (×8) (TLR-4/CD14 (×8)) [%]	energy transfer CD32/CD14 (Uchm1) (CD32/CD14 (Uchm1)) [%]	energy transfer CD64/CD14 (Uchm1) (CD64/CD14 (Uchm1)) [%]	co-assembly of CD11b and CD14 (energy transfer between monoclonal antibodies) (CD11b and CD14)	energy transfer CD18(7E4)/CD14 (×8) (CD18(7E4)/CD14 (×8)) [%]	energy transfer CD16/CD14 (Uchm1) (CD16/CD14 (Uchm1)) [%]	EC50 (CD11b and CD14; human monocytes, FIG. 1b, read-out: EC50cer, ceramide-induced energy transfer between antibodies against CD11b and CD14 (clone ×8)) [nM]	energy transfer CD47/CD14 (Uchm1) (CD47/CD14 (Uchm1)) [%]
HSP70: Heat shock protein 70 obtained from Stressgen	1.0 ± 0.1	3.8 ± 2.5	6.0 ± 0.5	8.2 ± 1.8	5.4 ± 0.6	5.3 ± 2.1	10.1 ± 1.5	induces clustering of CD11b and CD14	6.0 ± 2.1			
ceramide	3.1 ± 2.4	2.8 ± 0.7	9.7 ± 1.5	10.1 ± 1.0	3.2 ± 2.5	11.6 ± 3.4	10.4 ± 1.3	induces the transfer of CD14 into a receptor cluster	5.4 ± 0.8	3.2 ± 5.6	~0.1	11.9 ± 3.1
